Molecules are shown by their SMILES.

The target in the experiment is transcription apparatus of the influenza virus (Influenza A virus, UniProt P03433). In words: in vitro influenza transcription assay. The format is biochemical.
A word on the IC50: it is the concentration that inhibits the measured activity by half. High values mean a need for much substance, low ones inhibition by little substance. Regarding `CC(C)/C=C1\N=C(CC(C)C)C(=O)N(O)C1=O` [Compound I, 1-(N-hydroxy)-3-(2-methyl-propyl)-5-(2-methyl-Z-prop-1-enyl)-2,6-diketopiperazine-3,4-ene], half-maximal inhibition (IC50) required 5 µM and the “IC50 in flu transcription assay (compared with the natural product)” value is reported as “same IC50”. In the case of `CC(C)CC1=N/C(=C\c2ccc(F)cc2)C(=O)N(O)C1=O` [Example 9, 1-(N-hydroxy)-3-(2-methyl-propyl)-5-(Z-p-fluorobenz-1-enyl)-2.6-diketopiperazine-3.4-ene], the IC50 came to 0.9 µM. Same read-out and setting: the same measure for `CC(C)CC1NC(Cc2ccc(F)cc2)C(=O)N(O)C1=O` (centres unmarked) [Example 16]: 85 µM. Still for that read-out and setting: the same measure for `CC(C)CC1=N/C(=C\c2cccc(F)c2)C(=O)N(O)C1=O` [Example 11, 1-(N-hydroxy)-3-(2-methyl-propyl)-5-(Z-m-fluorobenz-1-enyl)-2,6-diketopiperazine-3,4-ene]: 1.5 µM. Same read-out and setting: in the case of `O=C1C(Cc2ccc(F)cc2)=N/C(=C\c2ccccc2)C(=O)N1O` [Example 15B] it was 6.5 µM; in that of `COc1ccc(/C=C2\N=C(Cc3ccccc3)C(=O)N(O)C2=O)cc1` [Example 14, 1-(N-hydroxy)-3-(benzyl)-5-(Z-p-methoxybenz-1-enyl)-2,6-diketopiperazine-3,4-ene], 2.8 µM. `COc1ccc(/C=C2\N=C(CC(C)C)C(=O)N(O)C2=O)cc1` [Example 12, 1-(N-hydroxy)-3-(2-methyl-propyl)-5-(Z-p-methoxybenz-1-enyl)-2,6-diketopiperazine-3,4-ene] gave an IC50 of 0.8 µM. Compared with the last compound, the IC50 is about 3.5-fold lower. Compound `CC(C)CC1=N/C(=C\c2ccccc2F)C(=O)N(O)C1=O` [Example 10, 1-(N-hydroxy)-3-(2-methyl-propyl)-5-(Z-o-fluorobenz-1-enyl)-2,6-diketopiperazine-3,4-ene] came in with an IC50 of 7.3 µM. Still for that read-out and setting: the same measure for `CC(C)CC1=N/C(=C\c2ccccc2)C(=O)N(O)C1=O` [Example 8, 1-(N-hydroxy)-3-(2-methyl-propyl)-5-(Z-benz-1-enyl)-2.6-diketopiperazine-3,4-ene]: 4.8 µM; for `O=C1C(Cc2ccccc2)=N/C(=C\c2ccc(F)cc2)C(=O)N1O` [Example 15A, 1-(N-hydroxy)-3-(benzyl)-5-(Z-p-fluoro-benz-1-enyl)-2,6-diketopiperazine-3,4-ene]: 3.5 µM.

These data come from patent US5624928A, “Method of synthesizing an endonuclease inhibitor and analogs thereof” (priority 1994, dated 1997).
